Like-named read-outs stand apart in the source and are kept apart here. Positions of bridges follow the written chain, without caps; N, C: chain ends. Non-standard residues stand in square brackets, D forms with d. Residues, ends and D or L forms follow the SMILES beside them. Phe(3,4-Cl2) = N[C@@H](Cc1ccc(Cl)c(Cl)c1)C(=O)O; Pip = O=C(O)[C@@H]1CCCCN1; Dab = NCC[C@H](N)C(=O)O; Aib = CC(C)(N)C(=O)O; Sar = CNCC(=O)O
How the values were obtained:
human MC4R [1] = biological target: T1, human MC4R (Homo sapiens, UniProt P32245); assay: 125NDP-α-MSH competitive binding to membranes of BHK cells expressing human MC4 receptor (filtration assay)
T1 construct: expressed in transfected cells
Method in brief: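 Displacement of ^125NDP-α-MSH (apx. […] final) was measured by filtration after 2 h at 25 °C, using diluted membranes of stably transfected BHK cells in pH 7.0 HEPES buffer. Compounds spanned 1 μM to 0.001 nM; binding curves were analysed by non-linear regression.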

human MC4R [2] = biological target: T1, human MC4R; assay: Functional cAMP assay (CisBio HTRF) in BHK cells expressing human MC4R; assay type: cell-based; conditions: for MC1R/MC4R cAMP EC50 ratio: MC1R cAMP EC50 divided by MC4R cAMP EC50
Method in brief: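 Compound working solutions, 10-fold dilutions from 2 μM at twice final strength, in buffer containing 1 mM IBMX, were incubated 30 min at 25 °C with BHK cells stably carrying human MC4R or MC1R. Accumulated cAMP was then detected by competitive HTRF after 1 h at 25 °C and fitted by non-linear regression.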

human MC1R = biological target: T2, human MC1R (Homo sapiens, UniProt Q01726); assay: Functional cAMP assay (CisBio HTRF) in BHK cells expressing human MC1R; assay type: cell-based
T2 construct: expressed in transfected cells
Description: In order to assess the potency of the compounds on human MC1R and human MC4R cAMP signalling was measured.
cAMP induction was measured by c-AMPdynamic2 assay, HTRF 62AM4PEC system from CisBio for the human MC1R and human MC4R according to the protocol provided by the vendor. BHK cells expressing the human MC1 or MC4 receptor were generated by stable transfection with expression vectors encoding the cDNA of either MC1R or MC4R.
In details; 25 μl compound—or standard solution were added in the respective wells. Compound was reconstituted in buffer (DMEM w/o phenol red, 10 mM
Hepes, lx Glutamine, 0.1% OV-albumin1, 1 mM IBMX) and serially diluted starting at 2 μM, 10-fold seven times. Dilutions were carried out in the same aforementioned buffer to the desired working concentration ranges (2× higher than the final concentration). 25 μl cell solution was then added and allowed to incubate for 30 min while lightly shaking, at 25° C. […] The provided components for the assay were reconstituted according to the CisBio assay protocol “3.1 supplied reagents and preparation procedure” in MilliQ purification system H2O and diluted 1:20 in lysis buffer. 25 μl cAMP-d2 and 25 μl Cryptate conjugate were added to all wells.
Plates were centrifuged at 1500 rpm for 30 sec and incubated for 1 h, lightly shaking, at 25° C. in a hotel stacker. The plates were read on Mithras LB 940 provided by Berthold Technologies The data were analysed by non-linear regression analysis of binding curves, using the Windows™ program GraphPad™ Prism (GraphPad Software, USA).
The latter is used when no full curve can be obtained in the concentration ranges indicated above.

[3] = human MC4R, BHK cell membranes, 125NDP-α-MSH radioligand, read-out: MC4R binding Ki
[4] = BHK cells expressing human MC4R, '>' = highest dose used with no response, read-out: MC4R cAMP EC50
[5] = BHK cells expressing human MC1R, '>' = highest dose used with no response, read-out: MC1R cAMP EC50

T2 sequence (Q01726 whole entry): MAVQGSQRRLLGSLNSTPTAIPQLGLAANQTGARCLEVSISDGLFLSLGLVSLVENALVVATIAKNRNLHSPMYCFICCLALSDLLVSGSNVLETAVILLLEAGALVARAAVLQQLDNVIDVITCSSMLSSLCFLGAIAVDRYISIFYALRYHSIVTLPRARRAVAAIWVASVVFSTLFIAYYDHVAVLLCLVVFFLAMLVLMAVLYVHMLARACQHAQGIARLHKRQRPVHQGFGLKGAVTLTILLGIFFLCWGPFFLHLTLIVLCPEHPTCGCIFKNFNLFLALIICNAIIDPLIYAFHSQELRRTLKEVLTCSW
T1 sequence (P32245 whole entry): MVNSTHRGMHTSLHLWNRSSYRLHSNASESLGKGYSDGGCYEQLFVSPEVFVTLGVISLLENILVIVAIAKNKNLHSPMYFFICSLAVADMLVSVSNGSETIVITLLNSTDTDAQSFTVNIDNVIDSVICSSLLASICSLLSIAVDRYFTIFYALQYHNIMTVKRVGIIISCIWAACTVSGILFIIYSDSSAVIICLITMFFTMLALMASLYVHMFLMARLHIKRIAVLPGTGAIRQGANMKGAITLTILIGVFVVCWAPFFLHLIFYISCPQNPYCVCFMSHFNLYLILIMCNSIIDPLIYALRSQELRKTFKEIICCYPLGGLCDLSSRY

Structure (SMILES) | Ki (human MC4R [1]) | EC50 (human MC4R [2]) | MC1R/MC4R cAMP EC50 ratio (human MC4R [2]) | EC50 (human MC1R) | Ki (human MC4R [1]; [3]) | EC50 (human MC4R [2]; [4]) | EC50 (human MC1R; [5])
C[C@@H]1NC(=O)[C@@H]2CSSC[C@H](NC(=O)[C@H](Cc3c[nH]c4ccccc34)NC(=O)[C@H](CCCNC(=N)N)NC(=O)[C@@H](Cc3ccccc3)NC(=O)[C@H](Cc3c[nH]cn3)NC1=O)C(=O)N[C@@H](C)C(=O)N[C@@H](CCC(=O)O)C(=O)N[C@@H](CCC(=O)O)C(=O)N[C@@H](CCC(=O)O)C(=O)N[C@@H](Cc1c[nH]c3ccccc13)C(=O)N2 [Chem. 44, c[c[Cys-Ala-His-D-Phe-Arg-Trp-Cys]- Ala-Glu-Glu-Glu-Trp]] (cyclo(AEEEWCAH[dF]RWC); disulfide 6-12) | 50.9 nM | 1.53 nM | 21 | 31.9 nM | – | – | –
CC1(C)NC(=O)[C@@H]2CSSC[C@H](NC(=O)[C@H](Cc3c[nH]c4ccccc34)NC(=O)[C@H](CCN)NC(=O)[C@@H](Cc3ccccc3)NC(=O)[C@H](Cc3c[nH]cn3)NC1=O)C(=O)NC(C)(C)C(=O)N[C@@H](Cc1c[nH]cn1)C(=O)N[C@H](Cc1ccccc1)C(=O)N[C@@H](CCN)C(=O)N[C@@H](Cc1c[nH]c3ccccc13)C(=O)N2 [Chem. 46, c[c[Cys-Aib-His-D-Phe-Dab-Trp- Cys]-Aib-His-D-Phe-Dab-Trp]] (cyclo([Aib]H[dF][Dab]WC[Aib]H[dF][Dab]WC); disulfide 6-12) | – | – | >1 | – | 7.86 nM | 5.65 nM | > 5.5 nM
C[C@@H]1NC(=O)[C@@H]2CSSC[C@H](NC(=O)[C@H](Cc3c[nH]c4ccccc34)NC(=O)[C@H](CCCNC(=N)N)NC(=O)[C@H](Cc3ccccc3)NC(=O)[C@H](Cc3c[nH]cn3)NC1=O)C(=O)N[C@@H](C)C(=O)N[C@@H](Cc1c[nH]cn1)C(=O)N[C@@H](Cc1ccccc1)C(=O)N[C@@H](CCCNC(=N)N)C(=O)N[C@@H](Cc1c[nH]c3ccccc13)C(=O)N2 [Chem. 56, c[c[Cys-Ala-His-Phe-Arg-Trp-Cys]- Ala-His-Phe-Arg-Trp]] | 1.82 nM | 0.44 nM | 80 | 35.3 nM | – | – | –
C[C@@H]1NC(=O)[C@@H]2CSSC[C@H](NC(=O)[C@H](Cc3c[nH]c4ccccc34)NC(=O)[C@H](CCCNC(=N)N)NC(=O)[C@@H](Cc3ccccc3)NC(=O)[C@H](Cc3c[nH]cn3)NC1=O)C(=O)N[C@@H](C)C(=O)N[C@@H](CCCCN)C(=O)N[C@@H](CCCCN)C(=O)N[C@@H](CCCCN)C(=O)N[C@@H](CCCNC(=N)N)C(=O)N2 [Chem. 59, c[c[Cys-Ala-His-D-Phe-Arg-Trp-Cys]- Ala-Lys-Lys-Lys-Arg]] (cyclo(AH[dF]RWCAKKKRC); disulfide 6-12) | – | – | 40 | – | 0.01 nM | 0.004 nM | 0.16 nM
C[C@@H]1NC(=O)[C@@H]2CSSC[C@H](NC(=O)[C@H](Cc3c[nH]c4ccccc34)NC(=O)[C@H](CCCCN)NC(=O)[C@H](CCCCN)NC(=O)[C@H](CCCCN)NC1=O)C(=O)NC(C)(C)C(=O)N[C@@H](Cc1c[nH]cn1)C(=O)N[C@H](Cc1ccccc1)C(=O)N[C@@H](Cc1c[nH]cn1)C(=O)N[C@@H](Cc1c[nH]c3ccccc13)C(=O)N2 [Chem. 61, c[c[Cys-Aib-His-D-Phe-His-Trp-Cys]- Ala-Lys-Lys-Lys-Trp]] (cyclo(AKKKWC[Aib]H[dF]HWC); disulfide 6-12) | – | – | >3 | – | 0.22 nM | 0.31 nM | > 1 nM
C[C@@H]1NC(=O)[C@@H]2CSSC[C@H](NC(=O)[C@H](Cc3c[nH]c4ccccc34)NC(=O)[C@H](CCCCN)NC(=O)[C@H](CCCCN)NC(=O)[C@H](CCCCN)NC1=O)C(=O)N1CCC[C@H]1C(=O)N[C@@H](Cc1c[nH]cn1)C(=O)N[C@H](Cc1ccccc1)C(=O)N[C@@H](Cc1c[nH]cn1)C(=O)N[C@@H](Cc1c[nH]c3ccccc13)C(=O)N2 [Chem. 62, c[c[Cys-Pro-His-D-Phe-His-Trp-Cys]- Ala-Lys-Lys-Lys-Trp]] (cyclo(AKKKWCPH[dF]HWC); disulfide 6-12) | – | – | >6 | – | 0.13 nM | 0.17 nM | > 1 nM
C[C@@H]1NC(=O)[C@@H]2CSSC[C@H](NC(=O)[C@H](Cc3ccc(Cl)c(Cl)c3)NC(=O)[C@H](CCCNC(=N)N)NC(=O)[C@@H](Cc3ccccc3)NC(=O)[C@H](Cc3c[nH]cn3)NC1=O)C(=O)N[C@@H](C)C(=O)N[C@@H](CCCCN)C(=O)N[C@@H](CCCCN)C(=O)N[C@@H](CCCCN)C(=O)N[C@@H](Cc1c[nH]c3ccccc13)C(=O)N2 [Chem. 66, c[c[Cys-Ala-His-D-Phe-Arg-3,4-DiCl- Phe-Cys]-Ala-Lys-Lys-Lys-Trp]] (cyclo(AH[dF]R[Phe(3,4-Cl2)]CAKKKWC); disulfide 6-12) | – | – | 22 | – | 0.03 nM | 0.01 nM | 0.22 nM
C[C@@H]1NC(=O)[C@@H]2CSSC[C@H](NC(=O)[C@H](Cc3c[nH]c4ccccc34)NC(=O)[C@H](CCCCN)NC(=O)[C@H](CCCCN)NC(=O)[C@H](CCCCN)NC1=O)C(=O)N(C)CC(=O)N[C@@H](Cc1c[nH]cn1)C(=O)N[C@H](Cc1ccccc1)C(=O)N[C@@H](Cc1c[nH]cn1)C(=O)N[C@@H](Cc1c[nH]c3ccccc13)C(=O)N2 [Chem. 73, c[c[Cys-Sar-His-D-Phe-His-Trp-Cys]- Ala-Lys-Lys-Lys-Trp]] (cyclo(AKKKWC[Sar]H[dF]HWC); disulfide 6-12) | – | – | >40 | – | 0.3 nM | – | > 50 nM
C[C@@H]1NC(=O)[C@@H]2CSSC[C@H](NC(=O)[C@H](CCCNC(=N)N)NC(=O)[C@H](CCCCN)NC(=O)[C@H](CCCCN)NC(=O)[C@H](CCCCN)NC1=O)C(=O)N(C)CC(=O)N[C@@H](Cc1c[nH]cn1)C(=O)N[C@H](Cc1ccccc1)C(=O)N[C@@H](Cc1c[nH]cn1)C(=O)N[C@@H](Cc1c[nH]c3ccccc13)C(=O)N2 [Chem. 74, c[c[Cys-Sar-His-D-Phe-His-Trp-Cys]- Ala-Lys-Lys-Lys-Arg]] (cyclo(AKKKRC[Sar]H[dF]HWC); disulfide 6-12) | – | – | 19 | – | 0.08 nM | 0.29 nM | > 5.5 nM
C[C@@H]1NC(=O)[C@@H]2CSSC[C@H](NC(=O)[C@H](Cc3c[nH]c4ccccc34)NC(=O)[C@H](CCCNC(=N)N)NC(=O)[C@@H](Cc3ccccc3)NC(=O)[C@H](Cc3c[nH]cn3)NC1=O)C(=O)N[C@@H](C)C(=O)N[C@@H](Cc1ccc(O)cc1)C(=O)N[C@@H](Cc1ccccc1)C(=O)N[C@@H](CCCCN)C(=O)N[C@@H](Cc1c[nH]c3ccccc13)C(=O)N2 [Chem. 80, c[c[Cys-Ala-His-D-Phe-Arg-Trp-Cys]- Ala-Tyr-Phe-Lys-Trp]] (cyclo(AH[dF]RWCAYFKWC); disulfide 6-12) | – | – | 58 | – | 0.16 nM | 0.15 nM | 8.65 nM
C[C@@H]1NC(=O)[C@@H]2CSSC[C@H](NC(=O)[C@H](Cc3c[nH]c4ccccc34)NC(=O)[C@H](CCCCN)NC(=O)[C@H](CCCCN)NC(=O)[C@H](CCCCN)NC1=O)C(=O)N1CCCC[C@H]1C(=O)N[C@@H](Cc1c[nH]cn1)C(=O)N[C@H](Cc1ccccc1)C(=O)N[C@@H](Cc1c[nH]cn1)C(=O)N[C@@H](Cc1c[nH]c3ccccc13)C(=O)N2 [Chem. 83, c[c[Cys-PIP-His-D-Phe-His-Trp-Cys]- Ala-Lys-Lys-Lys-Trp]] (cyclo(AKKKWC[Pip]H[dF]HWC); disulfide 6-12) | – | – | >5 | – | 0.17 nM | – | > 10 nM
